The results in this text go back to patent US20060063803A1, “4-Amino substituted-2-substituted-1,2,3,4-tetrahydroquinoline compounds” (Pfizer Inc, priority 2004, published 2006).

One may read the AUC(0-inf) as total exposure, with the tail of the curve extrapolated. Low readings indicate low exposure, high ones high exposure. The term Cmax denotes the maximum level reached in the sampled fluid or tissue.

The nature of series [1]: In vitro microcentrifuge dissolution test. The conditions noted are these: PBS pH 6.5, 290 mOsm/kg, 7.3 mM sodium taurocholic acid, 1.4 mM 1-palmitoyl-2-oleyl-sn-glycero-3-phosphocholine, 37° C.; 200 μgA/mL if all dissolved. The series is classed as physicochemical. Here is the method:
An in vitro dissolution test was used to determine the dissolution performance of the solid amorphous dispersion of Example 89. For this test, a sufficient amount of material was added to a microcentrifuge test tube so that the concentration of Compound A would have been 200 μgA/mL, if all of the compound had dissolved. The test was run in duplicate. The tubes were placed in a 37° C. temperature-controlled chamber, and 1.8 mL PBS at pH 6.5 and 290 mOsm/kg, containing 7.3 mM sodium taurocholic acid and 1.4 mM of 1-palmitoyl-2-oleyl-sn-glycero-3-phosphocholine, was added to each respective tube. The samples were quickly mixed using a vortex mixer for about 60 seconds. The samples were centrifuged at 13,000 G at 37° C. for 1 minute. The resulting supernatant solution was then sampled and diluted 1:5 (by volume) with methanol and analyzed by high-performance liquid chromatography (HPLC). HPLC analysis was performed using a Zorbax RX-C18 column. The mobile phase consisted of 30/70 0.15% trifluoroacetic acid/acetonitrile, with a flow rate of 1.0 mL/min. UV absorbance was measured at 254 nm. The contents of each tube were mixed on the vortex mixer and allowed to stand undisturbed at 37° C. until the next sample was taken. Samples were collected at 4, 10, 20, 40, 90, and 1200 minutes. […]

Series [2] is described as follows: In vivo tests - dogs, oral suspension, serum levels by LC/MS/MS. The settings on record: dog, 3 male beagle dogs, fasted, oral gavage of OPC suspension, 3 mgA/kg. Here is the method:
Samples were dosed orally as suspensions to 3 male beagle dogs in the fasted state. Oral powders for constitution (OPC) were prepared by adding 150 mg of crystalline Compound A to 50 mL water containing 0.5 wt % Methylcellulose A, or 600 mg of the dispersion of Example 1 to 50 mL water containing 0.5 wt % Methylcellulose A and 0.1 wt % Tween 80. Dogs were fasted overnight, and allowed ad libidum access to water. On the morning of the study, approximately 10 mL of OPC solution (3 mgA/kg) was administered via oral gavage with 10 mL normal saline flush.
Whole-blood samples (3-mL red-top Vacutainer tubes without serum separators) were taken from the jugular vein before dosing and at 0.25, 0.5, 1, 2, 4, 6, 8, and 24 hours after dosing. Serum was harvested into cryovials after centrifugation at 3000 rpm for 10 minutes. The samples were frozen and then kept at −20° C. until they were analyzed by liquid chromatography with tandem mass spectrometry (LC/MS/MS).

With `CC[C@@H]1C[C@H](N(Cc2cc(C(F)(F)F)cc(C(F)(F)F)c2)c2nnn(C)n2)c2cc(C(F)(F)F)ccc2N1C(=O)[C@H]1CC[C@H](CC(N)=O)CC1` [Crystalline Compound A, Trans-(2R,4S)-2-(4-{4-[(3,5-Bis-trifluoromethyl-benzyl)-(2-methyl-2H-tetrazol-5-yl)-amino]-2-ethyl-6-trifluoromethyl-3,4-dihydro-2H-quinoline-1-carbonyl}-cyclohexyl)-acetamide], in series [1], the “AUC90 (area under the concentration-versus-time curve during the initial ninety minutes)” value came to 800 min * μgA/mL and the “MDC90 (maximum dissolved concentration of Compound A during the initial ninety minutes)” value was determined as 13 μgA/mL. Further, in series [2], the total exposure AUC(0-inf) came to 2690 ng·h/mL and the maximum concentration (Cmax) was determined as 186 ng/mL.
